From the OligoGym collection
HELM strings list units from the 5' end as sugar, base in round brackets, then linkage (d deoxyribose, r ribose, m 2'-O-methyl, p phosphodiester). Strings are as the collection lists them; they lack the last nucleoside at the 3' end of the tested compound. [moe] = 2'-O-(2-methoxyethyl) (MOE); [sp] = phosphorothioate linkage; [m5C] = 5-methylcytosine

Molecular target: GFAP
Assay: mouse, dose not given
Settings: ASO

Row | Substance | 3 h FOB score [score 0-7]
1 | RNA1{[moe]([m5C])[sp].[moe](T)p.[moe](G)p.[moe]([m5C])p.[moe]([m5C])[sp].d(A)[sp].d(T)[sp].d(T)[sp].d(T)[sp].d(A)[sp].d(T)[sp].d([m5C])[sp].d(T)[sp].[moe](G)p.[moe](T)p.[moe](G)[sp].[moe]([m5C])}$$$$ (last 3' nucleoside missing) | 1
2 | RNA1{[moe]([m5C])[sp].[moe](T)p.[moe](G)p.[moe]([m5C])p.[moe]([m5C])p.[moe](A)p.d(T)[sp].d(T)[sp].d(T)[sp].d(A)[sp].d(T)[sp].d([m5C])[sp].d(T)[sp].d(G)[sp].d(T)[sp].d(G)[sp].[moe]([m5C])p.[moe](T)[sp].[moe](T)}$$$$ (last 3' nucleoside missing) | 1
3 | RNA1{[moe]([m5C])[sp].[moe](T)p.[moe](G)p.[moe]([m5C])p.[moe]([m5C])p.d(A)[sp].d(T)[sp].d(T)[sp].d(T)[sp].d(A)[sp].d(T)[sp].d([m5C])[sp].d(T)[sp].d(G)[sp].d(T)[sp].[moe](G)p.[moe]([m5C])p.[moe](T)[sp].[moe](T)}$$$$ (last 3' nucleoside missing) | 2
4 | RNA1{[moe]([m5C])[sp].[moe](T)p.[moe](T)p.[moe](G)p.[moe](G)[sp].d(A)[sp].d([m5C])[sp].d(T)[sp].d([m5C])[sp].d([m5C])[sp].d(T)[sp].d(T)[sp].d(A)[sp].d(A)[sp].d(T)[sp].[moe](G)p.[moe](A)p.[moe]([m5C])[sp].[moe]([m5C])}$$$$ (last 3' nucleoside missing) | 0
5 | RNA1{[moe]([m5C])[sp].[moe](T)p.[moe](T)p.[moe](G)p.[moe](T)p.d(G)[sp].d(A)[sp].d(T)[sp].d(T)[sp].d(T)[sp].d(T)[sp].d([m5C])[sp].d([m5C])[sp].d([m5C])[sp].d([m5C])[sp].[moe](G)p.[moe](T)p.[moe]([m5C])[sp].[moe](T)}$$$$ (last 3' nucleoside missing) | 3
6 | RNA1{[moe]([m5C])[sp].[moe](T)p.[moe](T)p.[moe](G)p.d(T)[sp].d(G)[sp].d(A)[sp].d(T)[sp].d(T)[sp].d(T)[sp].d(T)[sp].d([m5C])[sp].d([m5C])[sp].d([m5C])[sp].[moe]([m5C])p.[moe](G)p.[moe](T)p.[moe]([m5C])[sp].[moe](T)}$$$$ (last 3' nucleoside missing) | 0
7 | RNA1{[moe]([m5C])[sp].[moe](T)p.[moe](T)p.[moe](T)p.[moe](A)[sp].d(T)[sp].d(T)[sp].d(T)[sp].d(T)[sp].d(T)[sp].d([m5C])[sp].d([m5C])[sp].d(T)[sp].[moe]([m5C])p.[moe](A)p.[moe](G)[sp].[moe]([m5C])}$$$$ (last 3' nucleoside missing) | 4
8 | RNA1{[moe]([m5C])[sp].[moe](T)p.[moe](T)p.[moe](T)p.[moe](A)[sp].d(T)[sp].d(T)[sp].d(T)[sp].d(T)[sp].d(T)[sp].d([m5C])[sp].d([m5C])[sp].d(T)[sp].d([m5C])[sp].d(A)[sp].[moe](G)p.[moe]([m5C])p.[moe](G)[sp].[moe](A)}$$$$ (last 3' nucleoside missing) | 0
9 | RNA1{[moe]([m5C])[sp].[moe](T)p.[moe](T)p.[moe](T)p.[moe](A)p.[moe](T)p.d(T)[sp].d(T)[sp].d(T)[sp].d(T)[sp].d([m5C])[sp].d([m5C])[sp].d(T)[sp].d([m5C])[sp].d(A)[sp].d(G)[sp].[moe]([m5C])p.[moe](G)[sp].[moe](A)}$$$$ (last 3' nucleoside missing) | 1
10 | RNA1{[moe]([m5C])[sp].[moe](T)p.[moe](T)p.[moe](T)p.[moe](T)p.d(G)[sp].d(A)[sp].d(G)[sp].d(A)[sp].d(T)[sp].d(A)[sp].d(T)[sp].d([m5C])[sp].d(T)[sp].d(T)[sp].[moe](G)p.[moe](T)p.[moe](G)[sp].[moe](A)}$$$$ (last 3' nucleoside missing) | 0
11 | RNA1{[moe]([m5C])[sp].[moe](T)p.[moe](T)p.[moe](T)p.[moe]([m5C])[sp].d(T)[sp].d([m5C])[sp].d(T)[sp].d([m5C])[sp].d([m5C])[sp].d(T)[sp].d(G)[sp].d(T)[sp].d(T)[sp].d(T)[sp].[moe]([m5C])p.[moe](A)p.[moe](G)[sp].[moe]([m5C])}$$$$ (last 3' nucleoside missing) | 3
12 | RNA1{[moe]([m5C])[sp].[moe](T)p.[moe](T)p.[moe](T)p.d(T)[sp].d(G)[sp].d(A)[sp].d(G)[sp].d(A)[sp].d(T)[sp].d(A)[sp].d(T)[sp].d([m5C])[sp].d(T)[sp].[moe](T)p.[moe](G)p.[moe](T)p.[moe](G)[sp].[moe](A)}$$$$ (last 3' nucleoside missing) | 1
13 | RNA1{[moe]([m5C])[sp].[moe](T)p.[moe]([m5C])p.[moe](A)p.[moe](G)p.[moe](T)p.d(T)[sp].d(T)[sp].d(T)[sp].d([m5C])[sp].d([m5C])[sp].d(T)[sp].d([m5C])[sp].d([m5C])[sp].d(A)[sp].d(G)[sp].[moe]([m5C])p.[moe](A)[sp].[moe](G)}$$$$ (last 3' nucleoside missing) | 2
14 | RNA1{[moe]([m5C])[sp].[moe](T)p.[moe]([m5C])p.[moe](T)p.[moe](A)[sp].d(T)[sp].d([m5C])[sp].d([m5C])[sp].d([m5C])[sp].d(T)[sp].d([m5C])[sp].d([m5C])[sp].d([m5C])[sp].d(A)[sp].d(G)[sp].[moe]([m5C])p.[moe](A)p.[moe]([m5C])[sp].[moe]([m5C])}$$$$ (last 3' nucleoside missing) | 2
15 | RNA1{[moe]([m5C])[sp].[moe](T)p.[moe]([m5C])p.[moe](T)p.[moe](G)p.d([m5C])[sp].d([m5C])[sp].d(A)[sp].d(T)[sp].d(T)[sp].d(T)[sp].d(A)[sp].d(T)[sp].d([m5C])[sp].d(T)[sp].[moe](G)p.[moe](T)p.[moe](G)[sp].[moe]([m5C])}$$$$ (last 3' nucleoside missing) | 0
16 | RNA1{[moe]([m5C])[sp].[moe](T)p.[moe]([m5C])p.[moe]([m5C])p.[moe](A)[sp].d(T)[sp].d([m5C])[sp].d(T)[sp].d([m5C])[sp].d(T)[sp].d(G)[sp].d(G)[sp].d([m5C])[sp].d(A)[sp].d(A)[sp].[moe]([m5C])p.[moe](A)p.[moe](G)[sp].[moe](T)}$$$$ (last 3' nucleoside missing) | 4
17 | RNA1{[moe]([m5C])[sp].[moe](T)p.[moe]([m5C])p.[moe]([m5C])p.[moe](T)[sp].d(G)[sp].d(T)[sp].d(T)[sp].d(T)[sp].d([m5C])[sp].d(A)[sp].d(G)[sp].d([m5C])[sp].d(A)[sp].d(T)[sp].[moe]([m5C])p.[moe](T)p.[moe](T)[sp].[moe]([m5C])}$$$$ (last 3' nucleoside missing) | 2
18 | RNA1{[moe]([m5C])[sp].[moe]([m5C])p.[moe](A)p.[moe](G)p.[moe](T)[sp].d(G)[sp].d(T)[sp].d([m5C])[sp].d(T)[sp].d(T)[sp].d([m5C])[sp].d(A)[sp].d([m5C])[sp].d(T)[sp].d(T)[sp].[moe](T)p.[moe](G)p.[moe]([m5C])[sp].[moe](T)}$$$$ (last 3' nucleoside missing) | 0
19 | RNA1{[moe]([m5C])[sp].[moe]([m5C])p.[moe](A)p.[moe](G)p.[moe](T)[sp].d(G)[sp].d([m5C])[sp].d([m5C])[sp].d([m5C])[sp].d(T)[sp].d(T)[sp].d([m5C])[sp].d([m5C])[sp].d([m5C])[sp].d(A)[sp].[moe]([m5C])p.[moe](G)p.[moe](A)[sp].[moe](G)}$$$$ (last 3' nucleoside missing) | 2
20 | RNA1{[moe]([m5C])[sp].[moe]([m5C])p.[moe](A)p.[moe](G)p.[moe](T)p.d(G)[sp].d(T)[sp].d([m5C])[sp].d(T)[sp].d(T)[sp].d([m5C])[sp].d(A)[sp].d([m5C])[sp].d(T)[sp].d(T)[sp].[moe](T)p.[moe](G)p.[moe]([m5C])[sp].[moe](T)}$$$$ (last 3' nucleoside missing) | 0
21 | RNA1{[moe]([m5C])[sp].[moe]([m5C])p.[moe](A)p.[moe](T)p.[moe](T)[sp].d(T)[sp].d(A)[sp].d(T)[sp].d([m5C])[sp].d(T)[sp].d(G)[sp].d(T)[sp].d(G)[sp].[moe]([m5C])p.[moe](T)p.[moe](T)[sp].[moe](T)}$$$$ (last 3' nucleoside missing) | 4
22 | RNA1{[moe]([m5C])[sp].[moe]([m5C])p.[moe](A)p.[moe](T)p.[moe](T)[sp].d(T)[sp].d(A)[sp].d(T)[sp].d([m5C])[sp].d(T)[sp].d(G)[sp].d(T)[sp].d(G)[sp].d([m5C])[sp].d(T)[sp].[moe](T)p.[moe](T)p.[moe](A)[sp].[moe](G)}$$$$ (last 3' nucleoside missing) | 6
23 | RNA1{[moe]([m5C])[sp].[moe]([m5C])p.[moe](T)p.[moe](G)p.[moe](T)p.[moe](G)p.d(A)[sp].d([m5C])[sp].d(T)[sp].d(A)[sp].d(T)[sp].d([m5C])[sp].d(T)[sp].d(A)[sp].d(G)[sp].d(G)[sp].[moe](A)p.[moe](T)[sp].[moe](T)}$$$$ (last 3' nucleoside missing) | 1
24 | RNA1{[moe]([m5C])[sp].[moe]([m5C])p.[moe](T)p.[moe](G)p.[moe](T)p.d(G)[sp].d(A)[sp].d([m5C])[sp].d(T)[sp].d(A)[sp].d(T)[sp].d([m5C])[sp].d(T)[sp].d(A)[sp].d(G)[sp].[moe](G)p.[moe](A)p.[moe](T)[sp].[moe](T)}$$$$ (last 3' nucleoside missing) | 2
25 | RNA1{[moe]([m5C])[sp].[moe]([m5C])p.[moe](T)p.[moe](T)p.[moe](G)p.d(T)[sp].d(G)[sp].d(A)[sp].d(T)[sp].d(T)[sp].d(T)[sp].d(T)[sp].d([m5C])[sp].d([m5C])[sp].d([m5C])[sp].[moe]([m5C])p.[moe](G)p.[moe](T)[sp].[moe]([m5C])}$$$$ (last 3' nucleoside missing) | 0
26 | RNA1{[moe]([m5C])[sp].[moe]([m5C])p.[moe](T)p.[moe](T)p.d(G)[sp].d(T)[sp].d(G)[sp].d(A)[sp].d(T)[sp].d(T)[sp].d(T)[sp].d(T)[sp].d([m5C])[sp].d([m5C])[sp].[moe]([m5C])p.[moe]([m5C])p.[moe](G)p.[moe](T)[sp].[moe]([m5C])}$$$$ (last 3' nucleoside missing) | 1
